Measured values reported in ChEMBL document CHEMBL1133956, “Antagonists of the human CCR5 receptor as anti-HIV-1 agents. Part 3: a proposed pharmacophore model for 1-[N-(methyl)-N-(phenylsulfonyl)amino]-2-(phenyl)-4-[4-(substituted)piperidin-1-yl]butanes” (Bioorg Med Chem Lett, 2001).

How the values were obtained:
Format in all cases: cell-based
[1] = target: T1, C-C chemokine receptor type 5 (Homo sapiens, UniProt P51681); assay: Inhibition of [125I]-MIP-1 alpha binding to human CCR5 receptor expressed in Chinese hamster ovary (CHO) cells
Target sequence in this assay (P51681 whole entry): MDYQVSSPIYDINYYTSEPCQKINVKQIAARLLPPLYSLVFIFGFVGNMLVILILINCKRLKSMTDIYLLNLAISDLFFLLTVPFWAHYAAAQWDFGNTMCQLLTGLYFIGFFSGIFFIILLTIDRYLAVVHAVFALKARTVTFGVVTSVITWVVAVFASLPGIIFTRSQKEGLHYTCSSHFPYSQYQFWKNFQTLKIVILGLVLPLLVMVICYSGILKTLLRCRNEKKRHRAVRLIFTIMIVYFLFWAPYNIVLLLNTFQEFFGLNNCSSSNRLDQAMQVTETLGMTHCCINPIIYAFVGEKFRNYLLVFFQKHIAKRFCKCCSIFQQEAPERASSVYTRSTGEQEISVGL

[2] = target: T1, C-C chemokine receptor type 5; assay: Inhibition of [125I]-MIP-1 alpha binding to human CCR5 receptor expressed in Chinese hamster ovary (CHO) cells at 1000 nM
Target sequence in this assay (P51681 whole entry, looked up): as the sequence (P51681 whole entry) above

[3] = target: T1, C-C chemokine receptor type 5; assay: Inhibition of [125I]-MIP-1 alpha binding to human CCR5 receptor expressed in Chinese hamster ovary (CHO) cells; completely inactive
Target sequence in this assay (P51681 whole entry): as above

[4] = target: T1, C-C chemokine receptor type 5; assay: Inhibition of [125I]-MIP-1 alpha binding to human CCR5 receptor expressed in Chinese hamster ovary (CHO) cells at 1000 nM;
Target sequence in this assay (P51681 whole entry, looked up): as the sequence (P51681 whole entry) above

IC50 [1]	Compound	other results
35 nM	CN(C[C@@H](CCN1CCC2(CC1)CNC(=O)c1ccccc12)c1cccc(Cl)c1)S(=O)(=O)c1ccccc1	–
–	CN(C[C@@H](CCN1CCC2(CC1)CN(S(C)(=O)=O)c1ccccc12)c1cccc(Cl)c1)S(=O)(=O)c1ccccc1	inhibition [2]: 12%
2400 nM	Cc1ccccc1N1CCN(CC[C@H](CN(C)S(=O)(=O)c2ccccc2)c2cccc(Cl)c2)CC1	–
5 nM	CN(C[C@@H](CCN1CCC2(CC1)CC(=O)c1ccccc12)c1cccc(Cl)c1)S(=O)(=O)c1ccccc1	–
–	CN(CCc1ccccc1)CC[C@H](CN(C)S(=O)(=O)c1ccccc1)c1cccc(Cl)c1	IC50 [3]: > 10000 nM
200 nM	CN(C[C@@H](CCN1CCC(c2ccc(Cl)cc2)CC1)c1cccc(Cl)c1)S(=O)(=O)c1ccccc1	–
–	CN(C[C@@H](CCN1CCC2(CC1)CC(=O)c1ccccc1O2)c1cccc(Cl)c1)S(=O)(=O)c1ccccc1	inhibition [4]: 24%
180 nM	CN(C[C@@H](CCN1CCC2(CCc3ccccc32)CC1)c1cccc(Cl)c1)S(=O)(=O)c1ccccc1	–
65 nM	CN(C[C@@H](CCN1CCC(CCc2ccccc2)CC1)c1cccc(Cl)c1)S(=O)(=O)c1ccccc1	–
120 nM	CN(C[C@@H](CCN1CCC(c2cccc(C(F)(F)F)c2)CC1)c1cccc(Cl)c1)S(=O)(=O)c1ccccc1	–
–	CN(C[C@@H](CCc1ccc(-c2ccccc2)cn1)c1ccc(Cl)c(Cl)c1)S(=O)(=O)c1ccccc1	IC50 [3]: > 10000 nM
25 nM	CN(C[C@@H](CCN1CCC(c2ccc(F)cc2)CC1)c1cccc(Cl)c1)S(=O)(=O)c1ccccc1	–
250 nM	CN(C[C@@H](CCN1CCC(Cc2ccccc2)CC1)c1cccc(Cl)c1)S(=O)(=O)c1ccccc1	–
45 nM	CN(C[C@@H](CCN1CCC2(CC1)NC(=O)c1ccccc12)c1cccc(Cl)c1)S(=O)(=O)c1ccccc1	–
260 nM	CN(C[C@@H](CCN1CCC2(CC1)Cc1ccccc1O2)c1cccc(Cl)c1)S(=O)(=O)c1ccccc1	–
50 nM	CN(C[C@@H](CCN1CCC2(CC1)CNc1ccccc12)c1cccc(Cl)c1)S(=O)(=O)c1ccccc1	–
70 nM	COc1ccccc1C1CCN(CC[C@H](CN(C)S(=O)(=O)c2ccccc2)c2cccc(Cl)c2)CC1	–
–	CN(C[C@@H](CCN1CCC(C(C)(C)C)CC1)c1cccc(Cl)c1)S(=O)(=O)c1ccccc1	inhibition [2]: 40%
400 nM	Cc1ccccc1C1CCN(CC[C@H](CN(C)S(=O)(=O)c2ccccc2)c2cccc(Cl)c2)CC1	–
–	CN(C[C@@H](CCNCCc1ccccc1)c1cccc(Cl)c1)S(=O)(=O)c1ccccc1	IC50 [3]: > 10000 nM
–	CN(C[C@@H](CCN1CCCCC1)c1cccc(Cl)c1)S(=O)(=O)c1ccccc1	inhibition [2]: 27%
100 nM	CN(C[C@@H](CCN1CCC2(CC1)CC(O)c1ccccc12)c1cccc(Cl)c1)S(=O)(=O)c1ccccc1 (some centres not stated)	–
–	CN(C[C@@H](CCc1ccc(-c2ccccc2)cc1)c1ccc(Cl)c(Cl)c1)S(=O)(=O)c1ccccc1	IC50 [3]: > 10000 nM
5 nM	CN(C[C@@H](CCN1CCC(CCCc2ccccc2)CC1)c1cccc(Cl)c1)S(=O)(=O)c1ccccc1	–
700 nM	CN(C[C@@H](CCN1CCN(c2ccccc2)CC1)c1cccc(Cl)c1)S(=O)(=O)c1ccccc1	–
35 nM	CN(C[C@@H](CCN1CCC2(CC1)CC(=O)Nc1ccccc12)c1cccc(Cl)c1)S(=O)(=O)c1ccccc1	–
100 nM	CN1C(=O)c2ccccc2C12CCN(CC[C@H](CN(C)S(=O)(=O)c1ccccc1)c1cccc(Cl)c1)CC2	–
